Assay results published in patent US8299111B2, “Compounds which modulate the CB2 receptor” (Boehringer Ingelheim International GmbH, priority 2006, dated 2012).

target: T1, human CB2R (Homo sapiens, UniProt P34972); assay: CB2R mediated modulation of cAMP synthesis; type: cell-based; settings: found through the use of the above described assays (binding and cAMP); CHO cells expressing human CB2R, forskolin-stimulated cAMP
T1 construct: host or cells: CHO cells
Method in brief: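 EC50 values reflect inhibition of cAMP made in response to 10 uM forskolin (with 1 mM IBMX, 0.25% BSA) over 30 min at 37 °C in human CB2R-expressing CHO cells. The window runs from forskolin alone to 1 uM CP55940; curves fitted with a four-parameter logistic model.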

T1 sequence (P34972 whole entry): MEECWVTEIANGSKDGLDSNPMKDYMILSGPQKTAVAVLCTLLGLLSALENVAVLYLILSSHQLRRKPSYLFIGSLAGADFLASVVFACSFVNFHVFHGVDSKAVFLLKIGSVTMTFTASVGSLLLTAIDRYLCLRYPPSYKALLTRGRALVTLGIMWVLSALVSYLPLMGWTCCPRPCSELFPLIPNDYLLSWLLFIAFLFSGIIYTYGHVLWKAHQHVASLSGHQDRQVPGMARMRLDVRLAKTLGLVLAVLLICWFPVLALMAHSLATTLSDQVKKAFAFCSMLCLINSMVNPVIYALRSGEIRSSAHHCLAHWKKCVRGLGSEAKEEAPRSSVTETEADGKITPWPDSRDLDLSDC

SMILES	agonistic activity
CC(C)(C)c1cc(NC(=O)C(C)(C)S(=O)(=O)c2ccccc2)no1 [2-Benzenesulfonyl-N-(5-tert-butyl-isoxazol-3-yl)-2-methyl-propionamide]	agonistic activity
CC(C)(C)c1cc(NC(=O)C(C)(C)S(=O)(=O)c2ccc(Cl)cc2)[nH]n1 [N-(5-tert-Butyl-2H-pyrazol-3-yl)-2-(4-chloro-benzenesulfonyl)-2-methyl-propionamide]	agonistic activity
Cc1ccc(S(=O)(=O)C(C)(C)C(=O)Nc2cc(C(C)(C)C)on2)cc1 [N-(5-tert-Butyl-isoxazol-3-yl)-2-methyl-2-(toluene-4-sulfonyl)-propionamide]	agonistic activity
CC(C)(C)c1cc(NC(=O)C(C)(C)S(=O)(=O)c2cccc(C(F)(F)F)c2)no1 [N-(5-tert-Butyl-isoxazol-3-yl)-2-methyl-2-(3-trifluoromethyl-benzenesulfonyl)-propionamide]	agonistic activity
Cc1ccc(S(=O)(=O)C(C)(C)C(=O)Nc2cc(C(C)(C)C)nn2C)cc1 [N-(5-tert-Butyl-2-methyl-2H-pyrazol-3-yl)-2-methyl-2-(toluene-4-sulfonyl)-propionamide]	agonistic activity
CC(C)(C(=O)Nc1ccc(C(F)(F)F)cn1)S(=O)(=O)c1ccc(C(F)(F)F)nc1 [2-Methyl-2-(6-trifluoromethyl-pyridine-3-sulfonyl)-N-(5-trifluoromethyl-pyridin-2-yl)-propionamide]	agonistic activity
CC(C)(C(=O)Nc1nnc(-c2ccccc2)s1)S(=O)(=O)c1ccc(Cl)cc1 [2-(4-Chloro-benzenesulfonyl)-2-methyl-N-(5-phenyl-[1,3,4]thiadiazol-2-yl)-propionamide]	agonistic activity
CC(C)(C)c1cc(NC(=O)C(C)(C)S(=O)(=O)c2cc(Cl)c(Cl)s2)no1 [N-(5-tert-Butyl-isoxazol-3-yl)-2-(4,5-dichloro-thiophene-2-sulfonyl)-2-methyl-propionamide]	agonistic activity
CCC(C)c1ccc(NC(=O)C(C)(C)S(=O)(=O)c2ccc(Cl)cc2)nc1 (centres unmarked) [N-(5-sec-Butyl-pyridin-2-yl)-2-(4-chloro-benzenesulfonyl)-2-methyl-propionamide]	agonistic activity
CCc1sc(NC(=O)C(C)(C)S(=O)(=O)c2ccc(OC)cc2)nc1-c1ccccc1 [N-(5-ethyl-4-phenyl-1,3-thiazol-2-yl)-2-[(4-methoxyphenyl)sulfonyl]-2-methylpropanamide]	agonistic activity
CC(C)(C(=O)Nc1ccc(C(F)(F)F)cn1)S(=O)(=O)c1ccc(Cl)nc1 [2-(6-Chloro-pyridine-3-sulfonyl)-2-methyl-N-(5-trifluoromethyl-pyridin-2-yl)-propionamide]	agonistic activity
CC(C)(C(=O)Nc1nc(-c2cccnc2)cs1)S(=O)(=O)c1ccc(Cl)cc1 [2-(4-Chloro-benzenesulfonyl)-2-methyl-N-(4-pyridin-3-yl-thiazol-2-yl)-propionamide]	agonistic activity
Cc1sc(NC(=O)C(C)(C)S(=O)(=O)c2ccc(Cl)cc2)nc1-c1ccccc1 [2-(4-Chloro-benzenesulfonyl)-2-methyl-N-(5-methyl-4-phenyl-thiazol-2-yl)-propionamide]	agonistic activity
CC(C)(C(=O)Nc1nc(C(F)(F)F)cs1)S(=O)(=O)c1ccc(S(C)(=O)=O)cc1 [2-methyl-2-{[4-(methylsulfonyl)phenyl]sulfonyl}-N-[4-(trifluoromethyl)-1,3-thiazol-2-yl]propanamide]	agonistic activity
CC(C)(C(=O)Nc1cccc(C(F)(F)F)n1)S(=O)(=O)c1ccc(S(C)(=O)=O)cc1 [2-methyl-2-{[4-(methylsulfonyl)phenyl]sulfonyl}-N-[6-(trifluoromethyl)pyridin-2-yl]propanamide]	agonistic activity
Cc1nc(NC(=O)C2(S(=O)(=O)c3ccc(Cl)cc3)CC2)sc1C(C)(C)C [1-(4-Chloro-benzenesulfonyl)-cyclopropanecarboxylic acid (5-tert-butyl-4-methyl-thiazol-2-yl)-amide]	agonistic activity
CC(C)(C(=O)Nc1nc2c(F)cccc2s1)S(=O)(=O)c1ccc(Cl)cc1 [2-[(4-chlorophenyl)sulfonyl]-N-(4-fluoro-1,3-benzothiazol-2-yl)-2-methylpropanamide]	agonistic activity
CC(C)(C(=O)Nc1nc(-c2ccccc2)co1)S(=O)(=O)c1ccccc1 [2-Benzenesulfonyl-2-methyl-N-(4-phenyl-oxazol-2-yl)-propionamide]	agonistic activity
Cn1nc(C2CCCCC2)cc1NC(=O)C(C)(C)S(=O)(=O)c1ccc(Cl)cc1 [2-(4-Chloro-benzenesulfonyl)-N-(5-cyclohexyl-2-methyl-2H-pyrazol-3-yl)-2-methyl-propionamide]	agonistic activity

SMILES	agonistic activity
CC(C)(C(=O)Nc1nc(C2CC2)cs1)S(=O)(=O)c1ccc(S(C)(=O)=O)cc1 [N-(4-cyclopropyl-1,3-thiazol-2-yl)-2-methyl-2-{[4-(methylsulfonyl)phenyl]sulfonyl}propanamide]	agonistic activity
CC(C)(C)c1cc(NC(=O)C(C)(C)S(=O)(=O)c2ccc(C(F)(F)F)cn2)no1 [N-(5-tert-Butyl-isoxazol-3-yl)-2-methyl-2-(5-trifluoromethyl-pyridine-2-sulfonyl)-propionamide]	agonistic activity
Cc1ccc(S(=O)(=O)C(C)(C)C(=O)Nc2cc(C(C)(C)C)on2)cc1F [N-(5-tert-Butyl-isoxazol-3-yl)-2-(3-fluoro-4-methyl-benzenesulfonyl)-2-methyl-propionamide]	agonistic activity
CC(C)(C(=O)Nc1cc(C(F)(F)F)ccn1)S(=O)(=O)c1ccc(Cl)cc1F [2-(4-Chloro-2-fluoro-benzenesulfonyl)-2-methyl-N-(4-trifluoromethyl-pyridin-2-yl)-propionamide]	agonistic activity
Cc1ccc(S(=O)(=O)C(C)(C)C(=O)Nc2ccc(C(F)(F)F)cn2)cc1F [2-(3-Fluoro-4-methyl-benzenesulfonyl)-2-methyl-N-(5-trifluoromethyl-pyridin-2-yl)-propionamide]	agonistic activity
Cn1nc(C(C)(C)C)cc1NC(=O)C(C)(C)S(=O)(=O)c1ccc(Cl)cc1 [N-(5-tert-Butyl-2-methyl-2H-pyrazol-3-yl)-2-(4-chloro-benzenesulfonyl)-2-methyl-propionamide]	agonistic activity
CC(C)c1cc(NC(=O)C(C)(C)S(=O)(=O)c2ccc(C(F)(F)F)nc2)n(C)n1 [N-(3-isopropyl-1-methyl-1H-pyrazol-5-yl)-2-methyl-2-{[6-(trifluoromethyl)pyridin-3-yl]sulfonyl}propanamide]	agonistic activity
Cn1nc(C(C)(C)C)cc1NC(=O)C(C)(C)S(=O)(=O)c1ccc(F)cc1 [N-(5-tert-Butyl-2-methyl-2H-pyrazol-3-yl)-2-(4-fluoro-benzenesulfonyl)-2-methyl-propionamide]	agonistic activity
Cc1cc(NC(=O)C(C)(C)S(=O)(=O)c2ccc(Cl)cc2)no1 [2-(4-Chloro-benzenesulfonyl)-2-methyl-N-(5-methyl-isoxazol-3-yl)-propionamide]	agonistic activity
COc1ccc(S(=O)(=O)C(C)(C)C(=O)Nc2cccc(C(F)(F)F)n2)cc1F [2-(3-Fluoro-4-methoxy-benzenesulfonyl)-2-methyl-N-(6-trifluoromethyl-pyridin-2-yl)-propionamide]	agonistic activity
CC(C)(C)c1csc(NC(=O)C2(S(=O)(=O)c3ccc(C(F)(F)F)cc3)CCOCC2)n1 [4-(4-Trifluoromethyl-benzenesulfonyl)-tetrahydro-pyran-4-carboxylic acid (4-tert-butyl-thiazol-2-yl)-amide]	agonistic activity
CC(C)(C)c1csc(NC(=O)C(C)(C)S(=O)(=O)c2ccc(C(F)(F)F)cc2)n1 [N-(4-tert-Butyl-thiazol-2-yl)-2-methyl-2-(4-trifluoromethyl-benzenesulfonyl)-propionamide]	agonistic activity
CCc1ccnc(NC(=O)C(C)(C)S(=O)(=O)c2ccc(S(C)(=O)=O)cc2)c1 [N-(4-ethylpyridin-2-yl)-2-methyl-2-{[4-(methylsulfonyl)phenyl]sulfonyl}propanamide]	agonistic activity
CC(C)(C)c1ccc(NC(=O)C(C)(C)S(=O)(=O)c2ccc(Cl)cc2)cc1 [N-(4-tert-Butyl-phenyl)-2-(4-chloro-benzenesulfonyl)-2-methyl-propionamide]	agonistic activity
Cc1cc(NC(=O)C(C)(C)S(=O)(=O)c2ccc(Cl)cc2)n(C)n1 [2-(4-Chloro-benzenesulfonyl)-N-(2,5-dimethyl-2H-pyrazol-3-yl)-2-methyl-propionamide]	agonistic activity
COc1ccc(S(=O)(=O)C(C)(C)C(=O)Nc2nc(C3CCCCC3)cs2)cc1 [N-(4-cyclohexyl-1,3-thiazol-2-yl)-2-[(4-methoxyphenyl)sulfonyl]-2-methylpropanamide]	agonistic activity
CC(C)(C)c1coc(NC(=O)C(C)(C)S(=O)(=O)c2ccc(Cl)cc2)n1 [N-(4-tert-Butyl-oxazol-2-yl)-2-(4-chloro-benzenesulfonyl)-2-methyl-propionamide]	agonistic activity
CC(C)(C)c1nnc(NC(=O)C(C)(C)S(=O)(=O)c2ccc(C(F)(F)F)nc2)s1 [N-(5-tert-butyl-1,3,4-thiadiazol-2-yl)-2-methyl-2-{[6-(trifluoromethyl)pyridin-3-yl]sulfonyl}propanamide]	agonistic activity
CC(C)(C(=O)Nc1cccc(C(F)(F)F)n1)S(=O)(=O)c1ccc(C(F)(F)F)nc1 [2-methyl-N-[6-(trifluoromethyl)pyridin-2-yl]-2-{[6-(trifluoromethyl)pyridin-3-yl]sulfonyl}propanamide]	agonistic activity
